“Also recorded” adds a separate entry of the source.
Columns and labels:
motor cortex [1] = tested on: motor cortex; parameters: species or system mice; settings: mouse, in vivo
[2] = tested on: synaptic vesicle exocytosis in hippocampal slice cultures; assay type: cell-based, mice
motor cortex [3] = tested on: motor cortex; parameters: species or system mice; settings: mouse, in vivo; remark: listed apart in the source
[4] = tested on: Na^+ transients in CA1 pyramidal neurons; assay type: cell-based, mice
[5] = tested on: Ca^2+ transients (OGB-1 signals) in neurons; assay type: cell-based, mice

## NC1=N[C@H](O)[C@H]2[C@H]3O[C@]4(O)O[C@@H]([C@@H](O)[C@@]2(N1)[C@@H]4O)[C@]3(O)CO [TTX, tetrodotoxin]
Motor cortex [1]
  US-evoked cortical activity: blocked
[2]
  exocytosis (spH response) in response to low intensity ultrasound waveforms: nearly abolishes; also recorded: nearly abolishing
Motor cortex [3]
  US-evoked EMG activity / descending corticospinal circuit activity: blocks
[4]
  Na^+ transient response (ΔF/F0 CoroNa Green) to USW-1: blocked
[5]
  average presynaptic temporal response of OGB-1 to USW-1: nearly abolishing
